Measurements reported in patent US20020137929A1, “1 - (3-heterocyclylphenyl) isothiourea, -isourea, -guanidine and -amidine herbicidal agents” (Intellectual Property Department, BASF Aktiengesellschaft, priority 1998, published 2002).

Tests used:
[1] = test system: ABUTH (Velvetleaf); assay: Postemergence herbicidal evaluation; assay type: in vivo, Abutilon theophrasti; conditions: postemergence
How it was run: (§1)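 Rate range approx. 0.0156–0.500 kg/ha. Foliar application at 40 psi to ~2-week seedlings; surfactant 0.5% TWEEN 20 in 50/50 acetone/water. Evaluation 4–5 wk post-treatment by 0–9 visual injury score, means of replicate tests.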

[2] = test system: AMBEL (Ragweed, Common); assay: Postemergence herbicidal evaluation; assay type: in vivo, Ambrosia artemisifolia; conditions: postemergence
How it was run: as §1

[3] = test system: IPOHE (Morningglory, Ivyleaf); assay: Postemergence herbicidal evaluation; assay type: in vivo, Ipomoea hederacea; conditions: postemergence
How it was run: as §1

[4] = test system: ECHCG (Barnyardgrass); assay: Postemergence herbicidal evaluation; assay type: in vivo, Echinochloa crus-galli; conditions: postemergence
How it was run: as §1

[5] = test system: SETVI (Foxtail, Green); assay: Postemergence herbicidal evaluation; assay type: in vivo, Setaria viridis; conditions: postemergence
How it was run: as §1

[6] = test system: GLXMAW (Soybean, Williams); assay: Postemergence herbicidal evaluation; assay type: in vivo, Glycine max, (L.) Merr. cv Williams; conditions: postemergence
How it was run: as §1

[7] = test system: TRZAWR (Wheat, Winter, cv Riband); assay: Postemergence herbicidal evaluation; assay type: in vivo, Triticum aestivum; conditions: postemergence
How it was run: as §1

[8] = test system: CASOB (Sicklepod); assay: Preemergence herbicidal evaluation; assay type: in vivo, Cassia obtusifolia; conditions: preemergence, rated 4-5 weeks after treatment, 0-9 scale
How it was run: (§2)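 Steps: mix seeds into potting soil; plant atop ~1 inch soil; spray compound in aqueous acetone (~0.0156-0.500 kg/ha equivalent); maintain in greenhouse with watering; rate visually 0-9 versus control at 4-5 weeks.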

[9] = test system: CHEAL (Lambsquarters, Common); assay: Preemergence herbicidal evaluation; assay type: in vivo, Chenopodium album; conditions: preemergence, rated 4-5 weeks after treatment, 0-9 scale
How it was run: as §2

[10] = test system: GALAP (Galium); assay: Preemergence herbicidal evaluation; assay type: in vivo, Galium aparine; conditions: preemergence, rated 4-5 weeks after treatment, 0-9 scale
How it was run: as §2

[11] = test system: IPOHE (Morningglory, Ivyleaf); assay: Preemergence herbicidal evaluation; assay type: in vivo, Ipomoea hederacea; conditions: preemergence, rated 4-5 weeks after treatment, 0-9 scale
How it was run: as §2

[12] = test system: ECHCG (Barnyardgrass); assay: Preemergence herbicidal evaluation; assay type: in vivo, Echinochloa crus-galli; conditions: preemergence, rated 4-5 weeks after treatment, 0-9 scale
How it was run: as §2

[13] = test system: ZEAMX (Corn, Field); assay: Preemergence herbicidal evaluation; assay type: in vivo, Zea mays; conditions: preemergence, rated 4-5 weeks after treatment, 0-9 scale
How it was run: as §2

[14] = test system: ECHORC (Watergrass (Calif.)); assay: Postemergence weed control under flooded paddy conditions; assay type: in vivo, Echinochloa oryzoides; conditions: postemergence weeds, rated 3 to 4 weeks after treatment
How it was run: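 Injury ratings (0–9 scale covering stand, vigor, malformation, size, chlorosis and overall appearance versus control) were made three to four weeks after treatment. Test material, about 0.0313 to 0.500 kg/ha a.i. in 50/50 v/v aqueous/acetone, was added to flood water 1.5 to 3 cm deep over 3 to 5 cm weeds and 1.5 to 2.5 leaf rice.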

Compound: CN1C(=O)C(CC(=O)NS(=O)(=O)c2ccccc2)SC1=Nc1cc(-n2c(=O)cc(C(F)(F)F)n(C)c2=O)c(F)cc1Cl (stereo not shown) [Compound 102, 2-{{2-Chloro-5-[3,6-dihydro-3-methyl-2,6-dioxo-4-(trifluoromethyl)-1(2H)-pyrimidinyl]-4-fluorophenyl}imino}-3-methyl-4-oxo-N-(phenylsulfonyl)-5-thiazolidineacetamide]
- Herbicidal rating ABUTH ([1]; rate 0.0156 kg/ha): 7.0
- Herbicidal rating ABUTH ([1]; rate 0.0313 kg/ha): 9.0
- Herbicidal rating ABUTH ([1]; rate 0.0625 kg/ha): 9.0
- Herbicidal rating ABUTH ([1]; rate 0.1250 kg/ha): 9.0
- Herbicidal rating AMBEL ([2]; rate 0.0156 kg/ha): 7.0
- Herbicidal rating AMBEL ([2]; rate 0.0313 kg/ha): 9.0
- Herbicidal rating AMBEL ([2]; rate 0.0625 kg/ha): 7.0
- Herbicidal rating AMBEL ([2]; rate 0.1250 kg/ha): 9.0
- Herbicidal rating IPOHE ([3]; rate 0.0156 kg/ha): 9.0
- Herbicidal rating IPOHE ([3]; rate 0.0313 kg/ha): 9.0
- Herbicidal rating IPOHE ([3]; rate 0.0625 kg/ha): 9.0
- Herbicidal rating IPOHE ([3]; rate 0.1250 kg/ha): 9.0
- Herbicidal rating ECHCG ([4]; rate 0.0156 kg/ha): 0.0
- Herbicidal rating ECHCG ([4]; rate 0.0313 kg/ha): 1.0
- Herbicidal rating ECHCG ([4]; rate 0.0625 kg/ha): 2.0
- Herbicidal rating ECHCG ([4]; rate 0.1250 kg/ha): 6.0
- Herbicidal rating SETVI ([5]; rate 0.0156 kg/ha): 0.0
- Herbicidal rating SETVI ([5]; rate 0.0313 kg/ha): 1.0
- Herbicidal rating SETVI ([5]; rate 0.0625 kg/ha): 2.0
- Herbicidal rating SETVI ([5]; rate 0.1250 kg/ha): 4.0
- Herbicidal rating GLXMAW ([6]; rate 0.0156 kg/ha): 5.0
- Herbicidal rating GLXMAW ([6]; rate 0.0313 kg/ha): 5.0
- Herbicidal rating GLXMAW ([6]; rate 0.0625 kg/ha): 6.0
- Herbicidal rating GLXMAW ([6]; rate 0.1250 kg/ha): 7.5
- Herbicidal rating TRZAWR ([7]; rate 0.0156 kg/ha): 3.0
- Herbicidal rating TRZAWR ([7]; rate 0.0313 kg/ha): 3.0
- Herbicidal rating TRZAWR ([7]; rate 0.0625 kg/ha): 4.5
- Herbicidal rating TRZAWR ([7]; rate 0.1250 kg/ha): 4.5
- CASOB rating ([8]; 0.0156 kg/ha): 0.0
- CASOB rating ([8]; 0.0313 kg/ha): 0.0
- CASOB rating ([8]; 0.0625 kg/ha): 0.0
- CASOB rating ([8]; 0.2500 kg/ha): 0.0
- CASOB rating ([8]; 0.5000 kg/ha): 4.0
- CHEAL rating ([9]; 0.0313 kg/ha): 6.0
- CHEAL rating ([9]; 0.0625 kg/ha): 5.0
- CHEAL rating ([9]; 0.2500 kg/ha): 1.0
- CHEAL rating ([9]; 0.5000 kg/ha): 9.0
- GALAP rating ([10]; 0.0156 kg/ha): 0.0
- GALAP rating ([10]; 0.0313 kg/ha): 1.0
- GALAP rating ([10]; 0.0625 kg/ha): 0.0
- GALAP rating ([10]; 0.2500 kg/ha): 1.0
- GALAP rating ([10]; 0.5000 kg/ha): 4.0
- IPOHE rating ([11]; 0.0156 kg/ha): 0.0
- IPOHE rating ([11]; 0.0313 kg/ha): 0.0
- IPOHE rating ([11]; 0.0625 kg/ha): 0.0
- IPOHE rating ([11]; 0.2500 kg/ha): 1.0
- IPOHE rating ([11]; 0.5000 kg/ha): 9.0
- ECHCG rating ([12]; 0.0156 kg/ha): 0.0
- ECHCG rating ([12]; 0.0313 kg/ha): 0.0
- ECHCG rating ([12]; 0.0625 kg/ha): 0.0
- ECHCG rating ([12]; 0.2500 kg/ha): 0.0
- ECHCG rating ([12]; 0.5000 kg/ha): 0.0
- ZEAMX rating ([13]; 0.0156 kg/ha): 0.0
- ZEAMX rating ([13]; 0.0313 kg/ha): 0.0
- ZEAMX rating ([13]; 0.0625 kg/ha): 0.0
- ZEAMX rating ([13]; 0.2500 kg/ha): 0.0
- ZEAMX rating ([13]; 0.5000 kg/ha): 1.0
- Herbicidal rating ECHORC ([14]; Rate 0.2500 kg/ha): 0.0
- Herbicidal rating ECHORC ([14]; Rate 0.5000 kg/ha): 2.0

Compound: C=CCN1C(=O)C(CC(=O)NS(=O)(=O)CC)SC1=Nc1cc(-n2c(=O)cc(C(F)(F)F)n(C)c2=O)c(F)cc1Cl (stereo not shown) [Compound 104, 3-Allyl-2-{{2-chloro-5-[3,6-dihydro-3-methyl-2,6-dioxo-4-(trifluoromethyl)-1(2H)-pyrimidinyl]-4-fluorophenyl}imino}-N-(ethylsulfonyl)-4-oxo-5-thiazolidineacetamide]
- Herbicidal rating ABUTH ([1]; rate 0.0156 kg/ha): 7.0
- Herbicidal rating ABUTH ([1]; rate 0.0313 kg/ha): 7.0
- Herbicidal rating ABUTH ([1]; rate 0.0625 kg/ha): 9.0
- Herbicidal rating ABUTH ([1]; rate 0.1250 kg/ha): 9.0
- Herbicidal rating AMBEL ([2]; rate 0.0156 kg/ha): 3.0
- Herbicidal rating AMBEL ([2]; rate 0.0313 kg/ha): 9.0
- Herbicidal rating AMBEL ([2]; rate 0.0625 kg/ha): 9.0
- Herbicidal rating AMBEL ([2]; rate 0.1250 kg/ha): 9.0
- Herbicidal rating IPOHE ([3]; rate 0.0156 kg/ha): 9.0
- Herbicidal rating IPOHE ([3]; rate 0.0313 kg/ha): 9.0
- Herbicidal rating IPOHE ([3]; rate 0.0625 kg/ha): 9.0
- Herbicidal rating IPOHE ([3]; rate 0.1250 kg/ha): 9.0
- Herbicidal rating ECHCG ([4]; rate 0.0156 kg/ha): 0.0
- Herbicidal rating ECHCG ([4]; rate 0.0313 kg/ha): 0.0
- Herbicidal rating ECHCG ([4]; rate 0.0625 kg/ha): 0.0
- Herbicidal rating ECHCG ([4]; rate 0.1250 kg/ha): 3.0
- Herbicidal rating SETVI ([5]; rate 0.0156 kg/ha): 0.0
- Herbicidal rating SETVI ([5]; rate 0.0313 kg/ha): 0.0
- Herbicidal rating SETVI ([5]; rate 0.0625 kg/ha): 3.0
- Herbicidal rating SETVI ([5]; rate 0.1250 kg/ha): 4.0
- Herbicidal rating GLXMAW ([6]; rate 0.0156 kg/ha): 4.5
- Herbicidal rating GLXMAW ([6]; rate 0.0313 kg/ha): 5.5
- Herbicidal rating GLXMAW ([6]; rate 0.0625 kg/ha): 7.0
- Herbicidal rating GLXMAW ([6]; rate 0.1250 kg/ha): 8.5
- Herbicidal rating TRZAWR ([7]; rate 0.0156 kg/ha): 3.0
- Herbicidal rating TRZAWR ([7]; rate 0.0313 kg/ha): 3.0
- Herbicidal rating TRZAWR ([7]; rate 0.0625 kg/ha): 4.0
- Herbicidal rating TRZAWR ([7]; rate 0.1250 kg/ha): 4.0
- CASOB rating ([8]; 0.0625 kg/ha): 0.0
- CASOB rating ([8]; 0.1250 kg/ha): 0.0
- CASOB rating ([8]; 0.2500 kg/ha): 0.0
- CASOB rating ([8]; 0.5000 kg/ha): 0.0
- CHEAL rating ([9]; 0.0625 kg/ha): 0.0
- CHEAL rating ([9]; 0.1250 kg/ha): 9.0
- CHEAL rating ([9]; 0.2500 kg/ha): 9.0
- CHEAL rating ([9]; 0.5000 kg/ha): 9.0
- GALAP rating ([10]; 0.0625 kg/ha): 0.0
- GALAP rating ([10]; 0.1250 kg/ha): 0.0
- GALAP rating ([10]; 0.2500 kg/ha): 0.0
- GALAP rating ([10]; 0.5000 kg/ha): 6.0
- IPOHE rating ([11]; 0.0625 kg/ha): 0.0
- IPOHE rating ([11]; 0.1250 kg/ha): 0.0
- IPOHE rating ([11]; 0.2500 kg/ha): 3.0
- IPOHE rating ([11]; 0.5000 kg/ha): 9.0
- ECHCG rating ([12]; 0.0625 kg/ha): 0.0
- ECHCG rating ([12]; 0.1250 kg/ha): 0.0
- ECHCG rating ([12]; 0.2500 kg/ha): 1.0
- ECHCG rating ([12]; 0.5000 kg/ha): 1.0
- ZEAMX rating ([13]; 0.0625 kg/ha): 0.0
- ZEAMX rating ([13]; 0.1250 kg/ha): 0.0
- ZEAMX rating ([13]; 0.2500 kg/ha): 0.0
- ZEAMX rating ([13]; 0.5000 kg/ha): 2.0
- Herbicidal rating ECHORC ([14]; Rate 0.0313 kg/ha): 4.0
- Herbicidal rating ECHORC ([14]; Rate 0.0625 kg/ha): 5.0
- Herbicidal rating ECHORC ([14]; Rate 0.1250 kg/ha): 6.0
- Herbicidal rating ECHORC ([14]; Rate 0.2500 kg/ha): 6.0
